Tests used:
Mtb proteasome = target: T1, Mtb proteasome (Mycobacterium tuberculosis, UniProt P9WHT9); assay: biochemical; type: biochemical; conditions: for IC50: 50 µM Suc-LLVY-AMC, 30 min preincubation, 37 °C, triplicate, read-out: IC50 against the Mtb proteasome; for Hill Coefficient: from IC50 curve, Mtb proteasome
T1 construct: made in house

ß5i of IP = conditions: cited from earlier work; for RA at 10 µM against ß5i of IP: residual activity of β5i in the presence of 10 μM compound; for Ki: read-out: Ki against ß5i of IP; for IC50: read-out: IC50 against ß5i of IP

T1 sequence (P9WHT9 whole entry, looked up): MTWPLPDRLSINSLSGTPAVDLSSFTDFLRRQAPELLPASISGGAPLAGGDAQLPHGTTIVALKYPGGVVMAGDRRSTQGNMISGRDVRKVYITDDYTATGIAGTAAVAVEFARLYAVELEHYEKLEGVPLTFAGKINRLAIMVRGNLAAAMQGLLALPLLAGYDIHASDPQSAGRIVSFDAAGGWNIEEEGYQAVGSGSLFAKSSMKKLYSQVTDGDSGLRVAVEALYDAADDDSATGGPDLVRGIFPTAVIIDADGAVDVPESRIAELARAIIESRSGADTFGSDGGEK

Row | SMILES | RA at 100 µM against Mtb (Mtb proteasome) [%] | RA at 10 µM against ß5i of IP (ß5i of IP) [%] | other results
1 | Cc1c(CCC(=O)O)c(=O)oc2cc3c(cc12)C(c1ccccc1)CO3 (racemic) [Compound 91] | 95 | 94 | –
2 | Cc1c(CCC(=O)ON2C(=O)CCC2=O)c(=O)oc2cc3c(cc12)C(c1ccccc1)CO3 (racemic) [Compound 92] | 95 | 36 | –
3 | Cc1c(CCC(=O)O)c(=O)oc2cc3occ(-c4ccc(Br)cc4)c3cc12 [Compound 1] | – | – | IC50 (Mtb proteasome): 39 ± 7 µM; Hill Coefficient (Mtb proteasome): 0.69; Ki (ß5i of IP): 137 µM
4 | Cc1c(CCC(=O)O)c(=O)oc2cc3occ(-c4ccc(Cl)cc4)c3cc12 [Compound 2] | – | 83 | IC50 (Mtb proteasome): 15 ± 2 µM; Hill Coefficient (Mtb proteasome): 1.75
5 | Cc1c(CCC(=O)O)c(=O)oc2cc3occ(-c4ccc(C(=O)O)cc4)c3cc12 [Compound 3] | – | 53 | IC50 (Mtb proteasome): 31 ± 5 µM; Hill Coefficient (Mtb proteasome): 1.22
6 | Cc1c(CC(=O)O)c(=O)oc2cc3occ(-c4ccc(Br)cc4)c3cc12 [Compound 4] | – | – | IC50 (Mtb proteasome): 4 ± 3 µM; Hill Coefficient (Mtb proteasome): 1.59; Ki (ß5i of IP): 12.7 µM
7 | Cc1c(CCC(=O)O)c(=O)oc2c(C)c3occ(-c4ccc(Br)cc4)c3cc12 [Compound 5] | – | 93 | IC50 (Mtb proteasome): 17 ± 3 µM; Hill Coefficient (Mtb proteasome): 0.70
8 | Cc1c(C(=O)O)c(=O)oc2cc3occ(-c4ccccc4)c3cc12 [Compound 6] | – | 82 | IC50 (Mtb proteasome): 2.2 ± 0.3 µM; Hill Coefficient (Mtb proteasome): 0.70
9 | Cc1c(CCC(=O)N(C)CC#N)c(=O)oc2cc3occ(C(C)(C)C)c3cc12 [Compound 7] | – | 100 | IC50 (Mtb proteasome): 8 ± 5 µM; Hill Coefficient (Mtb proteasome): 0.42
10 | Cc1c(CCC(=O)NCC#N)c(=O)oc2cc3occ(-c4ccccc4)c3cc12 [Compound 9] | – | 66 | IC50 (Mtb proteasome): 2 ± 2 µM; Hill Coefficient (Mtb proteasome): 2.27
11 | Cc1cc(-c2coc3cc4oc(=O)c(CC(=O)NCC#N)c(C)c4cc23)c(C)o1 [Compound 10] | – | 100 | IC50 (Mtb proteasome): 3 ± 2 µM; Hill Coefficient (Mtb proteasome): 4.46
12 | Cc1c(CCC(=O)ON2C(=O)CCC2=O)c(=O)oc2cc3occ(C4CCCCC4)c3cc12 [Compound 12] | – | – | IC50 (Mtb proteasome): 5 ± 2 µM; Hill Coefficient (Mtb proteasome): 1.05; IC50 (ß5i of IP): 1800 nM
13 | Cc1cc(-c2coc3cc4oc(=O)c(CC(=O)ON5C(=O)CCC5=O)c(C)c4cc23)c(C)o1 [Compound 14] | – | – | IC50 (Mtb proteasome): 9 ± 5 µM; Hill Coefficient (Mtb proteasome): 2.42; IC50 (ß5i of IP): 6900 nM
14 | Cc1c(CCC(=O)O)c(=O)oc2cc3occ(-c4ccccc4)c3cc12 [Compound 16] | 72 | – | inhibition of the Mtb proteasome (Mtb proteasome): did not inhibit; IC50 (ß5i of IP): 1600 nM; Ki (ß5i of IP): 1.6 ± 0.7 µM
15 | COc1ccc(-c2coc3cc4oc(=O)c(CCC(=O)O)c(C)c4cc23)cc1 [Compound 17] | 100 | 84 | –
16 | COc1cccc(-c2coc3cc4oc(=O)c(CCC(=O)O)c(C)c4cc23)c1 [Compound 18] | 100 | – | Ki (ß5i of IP): 29.6 ± 3.9 µM
17 | Cc1c(CCC(=O)O)c(=O)oc2cc3occ(C(C)(C)C)c3cc12 [Compound 19] | 95 | 83 | –
18 | Cc1coc2cc3oc(=O)c(CCC(=O)O)c(C)c3cc12 [Compound 20] | 93 | 94 | –
19 | Cc1cc(-c2coc3cc4oc(=O)c(CCC(=O)O)c(C)c4cc23)c(C)s1 [Compound 21] | 99 | – | Ki (ß5i of IP): 52.3 ± 18 µM
20 | Cc1c(CCC(=O)O)c(=O)oc2cc3occ(-c4ccco4)c3cc12 [Compound 22] | 55 | – | Ki (ß5i of IP): 116 ± 27 µM
21 | Cc1cc(-c2coc3cc4oc(=O)c(CCC(=O)O)c(C)c4cc23)c(C)o1 [Compound 23] | 76 | 100 | –
22 | Cc1c(CCC(=O)O)c(=O)oc2cc3occ(C4CCCCC4)c3cc12 [Compound 24] | 71 | 102 | –
23 | Cc1c(CC(=O)O)c(=O)oc2cc3occ(-c4ccccc4)c3cc12 [Compound 25] | 96 | – | Ki (ß5i of IP): 2.4 ± 0.4 µM
24 | COc1ccc(-c2coc3cc4oc(=O)c(CC(=O)O)c(C)c4cc23)cc1 [Compound 26] | 50 | – | Ki (ß5i of IP): 8.2 ± 0.5 µM
25 | COc1cccc(-c2coc3cc4oc(=O)c(CC(=O)O)c(C)c4cc23)c1 [Compound 27] | 98 | – | Ki (ß5i of IP): 7 ± 0.2 µM
26 | Cc1c(CC(=O)O)c(=O)oc2cc3occ(C(C)(C)C)c3cc12 [Compound 28] | 97 | 85 | –

Row | SMILES | RA at 100 µM against Mtb (Mtb proteasome) [%] | RA at 10 µM against ß5i of IP (ß5i of IP) [%] | other results
27 | Cc1coc2cc3oc(=O)c(CC(=O)O)c(C)c3cc12 [Compound 29] | 61 | 88 | –
28 | Cc1cc(-c2coc3cc4oc(=O)c(CC(=O)O)c(C)c4cc23)c(C)s1 [Compound 30] | 93 | – | Ki (ß5i of IP): 36.5 ± 7.1 µM
29 | Cc1c(CC(=O)O)c(=O)oc2cc3occ(-c4ccco4)c3cc12 [Compound 31] | 79 | – | Ki (ß5i of IP): 89.3 ± 2 µM
30 | Cc1cc(-c2coc3cc4oc(=O)c(CC(=O)O)c(C)c4cc23)c(C)o1 [Compound 32] | 100 | – | Ki (ß5i of IP): 351 ± 48 µM
31 | Cc1c(CC(=O)O)c(=O)oc2cc3occ(C4CCCCC4)c3cc12 [Compound 33] | 90 | – | Ki (ß5i of IP): 198 ± 21 µM
32 | O=C(O)Cc1cc2cc3c(-c4ccccc4)coc3cc2oc1=O [Compound 34] | 54 | – | Ki (ß5i of IP): 3.8 ± 1.1 µM
33 | Cc1c(CCC(=O)O)c(=O)oc2c(C)c3occ(-c4ccccc4)c3cc12 [Compound 35] | 100 | – | Ki (ß5i of IP): 43.1 ± 15 µM
34 | COc1cccc(-c2coc3c(C)c4oc(=O)c(CCC(=O)O)c(C)c4cc23)c1 [Compound 36] | 87 | 72 | –
35 | COc1ccc(-c2coc3c(C)c4oc(=O)c(CCC(=O)O)c(C)c4cc23)cc1 [Compound 37] | 87 | 87 | –
36 | Cc1c(CCC(=O)O)c(=O)oc2c(C)c3occ(-c4ccc(Cl)cc4)c3cc12 [Compound 38] | 47 | 89 | –
37 | Cc1c(CCC(=O)O)c(=O)oc2c(C)c3occ(-c4ccc(C(=O)O)cc4)c3cc12 [Compound 39] | 98 | – | –
38 | Cc1c(CCC(=O)N(C)CC#N)c(=O)oc2cc3occ(-c4ccccc4)c3cc12 [Compound 40] | 100 | 92 | –
39 | Cc1c(CCC(=O)N(C)CC#N)c(=O)oc2cc3occ(-c4ccc(Br)cc4)c3cc12 [Compound 41] | 91 | 107 | –
40 | Cc1coc2cc3oc(=O)c(CCC(=O)N(C)CC#N)c(C)c3cc12 [Compound 42] | 99 | 93 | –
41 | Cc1cc(-c2coc3cc4oc(=O)c(CCC(=O)N(C)CC#N)c(C)c4cc23)c(C)s1 [Compound 43] | 55 | 107 | –
42 | Cc1c(CCC(=O)N(C)CC#N)c(=O)oc2cc3occ(-c4ccco4)c3cc12 [Compound 44] | 82 | 86 | –
43 | Cc1c(CCC(=O)N(C)CC#N)c(=O)oc2cc3occ(C4CCCCC4)c3cc12 [Compound 45] | 92 | 111 | –
44 | Cc1c(CCC(=O)NCC#N)c(=O)oc2cc3occ(-c4ccc(Br)cc4)c3cc12 [Compound 46] | 82 | 107 | –
45 | Cc1coc2cc3oc(=O)c(CCC(=O)NCC#N)c(C)c3cc12 [Compound 47] | 95 | 105 | –
46 | Cc1cc(-c2coc3cc4oc(=O)c(CCC(=O)NCC#N)c(C)c4cc23)c(C)s1 [Compound 48] | 100 | 109 | –
47 | Cc1c(CCC(=O)NCC#N)c(=O)oc2cc3occ(-c4ccco4)c3cc12 [Compound 49] | 100 | 97 | –
48 | Cc1c(CCC(=O)NCC#N)c(=O)oc2cc3occ(C4CCCCC4)c3cc12 [Compound 50] | 96 | 102 | –
49 | Cc1c(CC(=O)N(C)CC#N)c(=O)oc2cc3occ(-c4ccccc4)c3cc12 [Compound 51] | 93 | 97 | –
50 | Cc1coc2cc3oc(=O)c(CC(=O)NCC#N)c(C)c3cc12 [Compound 62] | 60 | – | –
51 | Cc1c(CN)c(=O)oc2cc3occ(-c4ccccc4)c3cc12 [Compound 80] | 55 | – | –

Source: paper PMC7144120, “Psoralen Derivatives as Inhibitors of Mycobacterium tuberculosis Proteasome” (Molecules, 2020)
